The values below come from patent US9890147B2 (BAYER PHARMA AKTIENGESELLSCHAFT, priority 2012, dated 2018).

The test system of assay [1] is B16F10 cells. Put plainly: Cell proliferation assay (alamarBlue), B16F10. Conditions: Mus musculus, B16-F10, 96 hours incubation, inhibition of cell proliferation. Type of assay: cell-based. The method, boiled down: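 alamarBlue fluorescence (ex 530/em 590 nm) read after overnight seeding at 300-500 cells/well in DMEM + 10% FCS, then after 96 h at 37 °C with compound at 1E-8 to 1E-5 M. Baseline subtracted from endpoint, compared with buffer-treated cells; IC50 = concentration giving 50% proliferation inhibition.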
Background: Resazurin is reduced to fluorescent resorufin, in cell work by metabolically active cells.

Assay [2] concerns MOLM-13 cells. Put plainly: Cell proliferation assay (alamarBlue), MOLM-13. Type of assay: cell-based. Conditions: Homo sapiens, 96 hours incubation, inhibition of cell proliferation. The method, boiled down:
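IC50 = concentration giving 50% growth inhibition relative to buffer-treated cells, after subtracting baseline fluorescence taken before dosing. Compound applied at 1E-5 to 1E-8 M for 96 h at 37 °C in RPMI1640 with 10% FCS; alamarBlue signal at 530/590 nm.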

For assay [3], the system named is Caov-3 cells. Put plainly: Cell proliferation assay (alamarBlue), Caov-3. Conditions: Homo sapiens; inhibition of cell proliferation, Caov-3 (ovarian carcinoma), 96 hours. The format is cell-based. The method, boiled down: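 Caov-3 (MEM Earle's, 10% FCS, 2000 cells/well) and MDA-MB-231 (DMEM/Ham's F12, 10% FCS, 4000 cells/well) were treated after overnight attachment with 1E-5 to 1E-8 M compound. Caov-3 exposure was 96 h. alamarBlue fluorescence (ex 530, em 590 nm) was read after background subtraction of day-0 values, and IC50 calculated versus buffer-treated cells.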

The subject of assay [4] is LOX-IMVI cells. Put plainly: Cell proliferation assay (alamarBlue), LOX-IMVI. The format is cell-based. Conditions: Homo sapiens, 72 hours incubation, inhibition of cell proliferation. The method, boiled down:
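alamarBlue fluorescence (530 nm excitation, 590 nm emission) measured before dosing and after 72 h at 37° C exposure to 1E-5–1E-8 M compound; 1000 cells/well plated in RPMI1640/10% FCS the night before. IC50 from baseline-corrected signal relative to buffer-treated wells.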

Assay [5] concerns MDA-MB-231 cells. Put plainly: Cell proliferation assay (alamarBlue), MDA-MB-231. The format is cell-based. Conditions: Homo sapiens; inhibition of cell proliferation, MDA-MB-231 (breast carcinoma), 96 hours. How it is done:
In accordance with the invention, the capability of the substances to inhibit cell proliferation was determined Cell viability was determined using the alamarBlue® reagent (Invitrogen) in a Victor X3 Multilabel Reader (Perkin Elmer). The excitation wavelength was 530 nm and the emission wavelenth […].
The MDA-MB-231 cells (DSMZ, ACC 732) were sown at a concentration of 4000 cells/well in 100 μl growth medium (DMEM/Ham's F12 medium, 10% FCS) on 96-well microtitre plates. The Caov-3 cells (ATCC, HTB-75) were sown at a concentration of 2000 cells/well in 100 μl growth medium (MEM Earle's medium, 10% FCS) on 96-well microtitre plates.
After an overnight incubation at 37° C., the fluorescence values (CI values) were determined. The plates were then treated with various substance dilutions (1E-5 M, 3E-6 M, 1E-6M, 3E-7 M, 1E-7 M, 3E-8 M, 1E-8 M) and incubated at 37° C. for 72 (MV4-11-, LOX-IMVI cells), 96 (MOLM-13-, B16F10-, MDA-MB-431-, Caov-3 cells), 120 (MOLP-8-, KMS-12-PE cells) or 168 (LAPC-4 cells) hours. The fluorescence values (CO values) were then determined. For the data analysis, the CI values were subtracted from the CO values and the results were compared between cells treated with different dilutions of the substance or with buffer solution only. These were used to calculate the IC 50 values (substance concentration required for 50% inhibition of cell proliferation).

Assay [6] has as its target T1, BRD4 (BD1) (Homo sapiens, UniProt O60885).
T1 construct: with relatively long constructs also being possible, preferably amino acids 44-168; made in house; host or cells: E. coli
Description: Binding assay BRD4/acetylated peptide H4 (TR-FRET protein-protein interaction assay). The method, boiled down: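 Displacement of biotin-Ac-H4 peptide from His6-tagged BRD4(BD1), final usually 10 nM, read as Eu-streptavidin to anti-His-XL665 TR-FRET (665/620 nm). Compounds tested at 11 doses up to 20 μM in duplicate, pH 7.5 HEPES, 22 °C then 4 °C incubation; IC50 by 4-parameter regression.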
A general note: TR-FRET usually uses a lanthanide donor and a delayed reading to cut background.

Assay [7] concerns MV4-11 cells. Put plainly: Cell proliferation assay (alamarBlue), MV4-11. The format is cell-based. Conditions: Homo sapiens, 72 hours incubation, inhibition of cell proliferation. The method, boiled down:
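Cells seeded at 5000/well in RPMI1640 + 10% FCS, incubated overnight at 37° C, then treated with compound (1E-5 to 1E-8 M) for 72 h at 37° C. Viability by alamarBlue fluorescence (ex 530/em 590 nm); pre-treatment readings subtracted, IC50 derived versus buffer-treated cells.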

For assay [8], the system named is KMS-12-PE cells. Put plainly: Cell proliferation assay (alamarBlue), KMS-12-PE. The format is cell-based. Conditions: Homo sapiens, 120 hours incubation, inhibition of cell proliferation. The procedure, abridged:
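KMS-12-PE myeloma cells in RPMI1640 with 20% FCS were exposed to compound (1E-5 to 1E-8 M) for 120 h at 37° C. AlamarBlue fluorescence (ex 530, em 590 nm) read before and after treatment; the difference versus buffer-treated cells gave IC50.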

Assay [9] deals with LAPC-4 cells. Description: Cell proliferation assay (alamarBlue), LAPC-4. Type of assay: cell-based. Conditions: Homo sapiens, LAPC4; inhibition of cell proliferation, LAPC-4 (prostate cancer), 1 nM methyltrienolone, 168 hours.
Assay [10] has as its system MOLP-8 cells. Description: Cell proliferation assay (alamarBlue), MOLP-8. Conditions: Homo sapiens, 120 hours incubation, inhibition of cell proliferation. The format is cell-based. The procedure, abridged: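 MOLP-8 cells in RPMI1640 with 20% FCS, 4000 cells/well, treated overnight after seeding with substance at 1E-5 to 1E-8 M for 120 h at 37° C. Viability read by alamarBlue fluorescence (ex 530, em 590); pre-treatment values subtracted, compared with buffer-only cells to derive IC50.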

Usually IC50 stands for the point on the concentration scale where inhibition reaches its midpoint. Higher therefore signals lower potency. Turning to `CNC(=O)N1N=C(c2ccc(-c3cc[nH]n3)cc2)c2cc(OC)c(OC)cc2CC1C` (racemic) [Example 3, (±)-7,8-Dimethoxy-N,4-dimethyl-1-[4-(1H-pyrazol-3-yl)phenyl]-4,5-dihydro-3H-2,3-benzodiazepine-3-carboxamide], the half-maximal inhibitory concentration (IC50) in [1] was 110 nM; in assay [2] it was 240 nM; in assay [3], 550 nM; in assay [4], 950 nM; in [5], 210 nM; in [6] it was 50 nM. Moreover, the IC50 in assay [7] amounted to 260 nM; in [8] it was 230 nM; in assay [9], 110 nM; in [10], 280 nM.

In the case of `CNC(=O)N1N=C(c2ccc(-c3cccnc3Cl)cc2)c2cc(OC)c(OC)cc2CC1C` (racemic) [Example 4, (±)-1-[4-(2-chloropyridin-3-yl)phenyl]-7,8-dimethoxy-N,4-dimethyl-4,5-dihydro-3H-2,3-benzodiazepine-3-carboxamide], the half-maximal inhibitory concentration (IC50) in assay [1] amounted to 110 nM; in assay [2], 190 nM; in assay [3], 320 nM; in assay [4] it was 450 nM; in assay [5], 170 nM; in assay [6], 80 nM. The IC50 in [7] was found to be 120 nM; in assay [8], 110 nM; in assay [9] it was 90 nM; in [10], 170 nM.

For `CNC(=O)N1N=C(c2ccc(N3CCOCC3)cc2)c2cc(OC)c(OC)cc2CC1C` (racemic) [Example 7, (±)-7,8-Dimethoxy-N,4-dimethyl-1-[4-(morpholin-4-yl)phenyl]-4,5-dihydro-3H-2,3-benzodiazepine-3-carboxamide], the concentration for half-maximal inhibition (IC50) in assay [1] came to 140 nM; in assay [2], 200 nM; in assay [3], 400 nM; in [4], 570 nM; in assay [5], 250 nM; in [6], 30 nM. Further, the IC50 was 170 nM in assay [7], 90 nM in [8], 90 nM in assay [9] and 120 nM in [10].

As to `CNC(=O)N1N=C(c2ccc(-c3c(C)noc3C)cc2)c2cc(OC)c(OC)cc2C[C@@H]1C` [Example 2.2, (4S)-1-[4-(3,5-Dimethyl-4-isoxazolyl)phenyl]-7,8-dimethoxy-N,4-dimethyl-4,5-dihydro-3H-2,3-benzodiazepine-3-carboxamide], the IC50 in assay [1] worked out at 110 nM; in assay [2], 130 nM; in assay [3], 250 nM; in assay [4] it was 330 nM; in [5], 200 nM; in [6] it was 60 nM. In addition, the IC50 worked out at 100 nM in assay [7], 110 nM in assay [8], 90 nM in assay [9] and 120 nM in assay [10].

With `CNC(=O)N1N=C(c2ccc(-c3c(C)nn(C)c3C)cc2)c2cc(OC)ccc2C[C@@H]1C` [Example 22, (4S)-8-methoxy-N,4-dimethyl-1-[4-(1,3,5-trimethyl-1H-pyrazol-4-yl)phenyl]-4,5-dihydro-3H-2,3-benzodiazepine-3-carboxamide], the IC50 in assay [1] stood at 100 nM; in [2] it was 80 nM; in assay [3], 110 nM; in assay [4] it was 240 nM; in assay [5], 150 nM; in [6], 30 nM. Besides, the half-maximal inhibitory concentration (IC50) in assay [7] was 880 nM; in [8], 110 nM; in [9] it was 60 nM; in assay [10] it was 90 nM.

Turning to `CNC(=O)N1N=C(c2ccc(N3CCN(C)CC3)cc2)c2cc(OC)c(OC)cc2C[C@@H]1C` [Example 127.1, (4S)-7,8-Dimethoxy-N,4-dimethyl-1-[4-(4-methylpiperazin-1-yl)phenyl]-4,5-dihydro-3H-2,3-benzodiazepine-3-carboxamide], the IC50 in assay [1] was found to be 100 nM; in [2] it was 110 nM; in assay [3], 170 nM; in assay [4], 290 nM; in assay [5], 130 nM; in assay [6] it was 50 nM. The IC50 in [7] came to 70 nM; in assay [8], 90 nM; in assay [9], 40 nM; in assay [10] it was 60 nM.

As to `CNC(=O)N1N=C(c2ccc(N3CCC(O)CC3)cc2)c2cc(OC)c(OC)cc2C[C@@H]1C` [Example 130.1, (4S)-1-[4-(4-hydroxypiperidin-1-yl)phenyl]-7,8-dimethoxy-N,4-dimethyl-4,5-dihydro-3H-2,3-benzodiazepine-3-carboxamide], the IC50 is 100 nM in [1]; 70 nM in assay [2]; 3 nM in [3]; 190 nM in assay [4]; 140 nM in [5]; 20 nM in assay [6]. Moreover, the half-maximal inhibitory concentration (IC50) in assay [7] stood at 50 nM; in assay [8], 70 nM; in assay [9] it was 50 nM; in assay [10], 50 nM.
